Test results reported in patent publication US10493118B2, “Triterpenoid obtainable from hedera helix for treatment of neurodegenerative diseases” (Macau University of Science and Technology, priority 2016, dated 2019).

Columns and labels:
PC-12 cells = assay: MTT cytotoxicity assay in PC-12 cells; assay type: cell-based; conditions: for IC50: MTT assay for 48 h
Description: (§1) Cytotoxicity Assays: Cell viability was measured by using the MTT method (3-[4,5-dimethylthiazol-2-yl]-2,5-diphenyl tetrazolium bromide) as described previously (Wu, A. G. et al. Int J Mol Sci 2013, 14:22618-22641). Absorbance (OD) of cell samples was obtained by spectrophotometer at 570 nm. The percentage of cell viability was calculated by using the formula: cell viability (%)=cells numbertreated/cells numberDMSO control×100. All MTT data were calculated from three independent experiments.
as §1, with “experiments. Cell viability was also measured by flow cytometry using the Annexin V staining kit (BD Biosciences, San Jose, Calif., USA).” for “experiments.”
Cytotoxicity Assays and Flow Cytometry: Cell viability was measured by using the MTT method (3-[4,5-dimethylthiazol-2-yl]-2,5-diphenyl tetrazolium bromide) as described previously (Wu, A. G. et al. Int J Mol Sci 2013, 14:22618-22641). Absorbance (OD) of cell samples was obtained by spectrophotometer at 570 nm. The percentage of cell viability was calculated by using the formula: cell viability (%)=cells numbertreated/cells numberDMSO control×100. All MTT data were calculated from three independent experiments. Cell viability was also measured by flow cytometry using the Annexin V staining kit (BD Biosciences, San Jose, Calif., USA). In brief, PC-12 cells treated with hederagenin and α-hederin were analyzed by multiparametric flow cytometry using FITC-Annexin V and/or propidium iodide staining (BD Biosciences, San Jose, Calif., USA) by following manufacturer's instructions. Flow cytometry was then carried out using a FACSCalibur flow cytometer (BD Biosciences). […]

LC3-II = assay: Western blot of LC3-II in ATG7+/+ and ATG7−/− MEFs; assay type: cell-based, mouse; conditions: 24 h
Source text: (§2) Protein extraction and Western blots: Cells were harvested by RIPA lysis buffer (Cell Signaling Technologies, Beverly, Mass., USA), and with the final protein concentrations measured by using Bradford reagent (Bio-Rad, Hercules, Calif., USA). After electrophoresis for protein band separation, proteins were transferred to the nitrocellulose membrane which was blocked with 5% non-fat dried milk immediately after protein transfer. Corresponding primary antibodies, followed by the addition of HRP-conjugated secondary antibodies, were incubated with the protein membrane with constant shaking. Visualization of protein band pattern was performed by using the ECL Western Blotting Detection Reagents (Invitrogen, Paisley, Scotland). Band intensities were quantified by using the software, ImageJ (ImageJ 1.46r; National Institutes of Health, Bethesda, Md., USA).

[1] = tested on: EGFP-HTT 74 (mutant huntingtin); assay: Mutant huntingtin (EGFP-HTT 74) clearance and inclusion formation in ATG7+/+ and ATG7−/− MEFs; assay type: cell-based, mouse; conditions: 24 h; for percentage of cells with fluorescence mutant huntingtin inclusion formation: ATG7−/− compared with ATG7+/+ MEFs after treatment; for inclusion clearance of overexpressed mutant huntingtin in ATG7+/+ MEFs: EGFP-HTT 74 transfected ATG7+/+ MEFs
Source text: as §2
Cells were then treated with either hederagenin or α-hederin for a further 24 h to determine the protein level of mutant huntingtin by Western blot analysis using an antibody against GFP (Ravikumar, B. et al., Nat Genet 2004, 36:585-595). On the other hand, ATG7 wild-type and ATG7-deficient MEF cells transfected with EGFP-HTT 74 were analyzed for the formation of huntingtin inclusion after 24 h of hederagenin or α-hederin treatment. Percentages of cells with cytoplasmic GFP-huntingtin (GFP-HTT74) inclusion formation were counted by the number of cells with GFP inclusions over the total number of GFP-positive cells in the same field under fluorescent microscopic analysis. More than 200 GFP-positive cells were scored for each treatment.

[2] = tested on: α-synuclein oligomerization; assay: Bimolecular fluorescence complementation (BiFC) assay of α-synuclein oligomerization in HeLa cells; assay type: cell-based; conditions: for oligomerization of α-syn (GFP fluorescence intensity): transfected HeLa cells, hederagenin 40 or 80 μM, α-hederin 12 or 24 μM, 24 h
Description: Bimolecular Fluorescence Complementation (BiFC) Assay: Both (1) non-fluorescent GFP-N terminal (GFP-N-α-syn), or (2) non-fluorescent GFP-C terminal (GFP-C-α-syn) plasmids were generous gifts from Pamela J. McLean (Department of Neuroscience, Mayo Clinic Florida, Jacksonville, Fla., USA). HeLa cells transfected with both GFP-N-α-syn and GFP-C-α-syn plasmids were incubated at 37° C. for 4 h. Cells were then subjected to different concentration of hederagenin or α-hederin treatments for a further 24 h in a humidified incubator at […] (Outeiro, T. F. et al., PLoS One 2008, 3:e1867). Green fluorescent signal which indicates the reconstitution of complete GFP proteins was detected by flow analysis (BD FACSAria III, San Jose, Calif., USA).

SMILES | IC50 (PC-12 cells) [µM] | cytotoxicity at most effective concentration (PC-12 cells; hederagenin 80 μM, α-hederin 24 μM) | protein expression of LC3-II in ATG7+/+ MEFs (LC3-II) | percentage of cells with fluorescence mutant huntingtin inclusion formation [1] | inclusion clearance of overexpressed mutant huntingtin in ATG7+/+ MEFs [1] | oligomerization of α-syn (GFP fluorescence intensity) [2] | IC50 (PC-12 cells; Rattus norvegicus) [µM] | inhibition of α-syn oligomerization relative to α-hederin ([2]; BiFC assay, HeLa cells)
C[C@@H]1O[C@@H](O[C@H]2[C@H](O[C@H]3CC[C@@]4(C)[C@@H](CC[C@]5(C)[C@@H]4CC=C4[C@@H]6CC(C)(C)CC[C@]6(C(=O)O)CC[C@]45C)[C@]3(C)CO)OC[C@H](O)[C@@H]2O)[C@H](O)[C@H](O)[C@H]1O [α-hederin] | 26.5 | lack of obvious cytotoxicity | significant increased protein expression of LC3-II | higher percentage of cells with fluorescence mutant huntingtin inclusion formation was found in ATG−/− MEFs | facilitate the inclusion clearance of overexpressed mutant huntingtin | inhibit the oligomerization of α-syn |  | 
CC1(C)CC[C@]2(C(=O)O)CC[C@]3(C)C(=CC[C@@H]4[C@@]5(C)CC[C@H](O)[C@@](C)(CO)[C@@H]5CC[C@]43C)[C@@H]2C1 [hederagenin] |  |  | significant increased protein expression of LC3-II | higher percentage of cells with fluorescence mutant huntingtin inclusion formation was found in ATG−/− MEFs | facilitate the inclusion clearance of overexpressed mutant huntingtin | inhibit the oligomerization of α-syn | > 100 | more potent in the inhibition
